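Five compound concentrations were applied to cells in 96-well plates for 48 hours; endpoints were derived by simple linear interpolation of the resulting dose-response curve. GI50: concentration for 50% inhibition of growth.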 Active and inactive are the calls of the source. No stated cut-off is given here; in the data, active = GI50 up to about 1.1 µM and inactive = higher.
Tests used:
Test in all cases: NCI-60 cell line screen, 48 h
[1] = system: HL-60
[2] = system: OVCAR-3
[3] = system: IGROV-1
[4] = system: EKVX
[5] = system: ACHN
[6] = system: DLD-1
[7] = system: RXF 393
[8] = system: OVCAR-4
[9] = system: HCC 2998
[10] = system: HCT-116
[11] = system: HOP-62
[12] = system: M14
[13] = system: UACC-257
[14] = system: M19-MEL
[15] = system: SK-MEL-2
[16] = system: MOLT-4
[17] = system: 786-0
[18] = system: Malme-3M
[19] = system: NCI-H522
[20] = system: HOP-92
[21] = system: NCI-H23
[22] = system: HCT-15
[23] = system: OVCAR-8
[24] = system: SK-MEL-28
[25] = system: XF498
[26] = system: DMS-273
[27] = system: A549
[28] = system: K562
[29] = system: HT-29
[30] = system: CCRF-CEM
[31] = system: NCI-H226
[32] = system: NCI-H460
[33] = system: SF-268
[34] = system: OVCAR-5
[35] = system: SN12C
[36] = system: KM12
[37] = system: COLO 205
[38] = system: SF-295
[39] = system: KM-20L2
[40] = system: RPMI-8226
[41] = system: SR
[42] = system: TK-10
[43] = system: LOX IMVI
[44] = system: SK-MEL-5
[45] = system: SNB-78
[46] = system: CAKI-1
[47] = system: UO-31
[48] = system: SNB-75
[49] = system: SF-539
[50] = system: SK-OV-3
[51] = system: SW-620
[52] = system: LXFL 529
[53] = system: U-251
[54] = system: SNB-19
[55] = system: UACC-62
[56] = system: DMS-114

Cn1cccc(C(=O)c2ccccc2)c1=O was tested, and the GI50 [1] was > 100 µM (inactive), the GI50 [2] was > 100 µM (inactive) and the GI50 [3] was > 100 µM (inactive). The GI50 [4] was > 100 µM (inactive), the GI50 [5] was > 100 µM (inactive) and the GI50 [6] was > 100 µM (inactive). The GI50 [7] was > 100 µM (inactive), the GI50 [8] was > 100 µM (inactive) and the GI50 [9] was > 100 µM (inactive). For the same compound, the GI50 [10] was > 100 µM (inactive), the GI50 [11] was > 100 µM (inactive) and the GI50 [12] was > 100 µM (inactive). The GI50 [13] was > 100 µM (inactive), the GI50 [14] was > 100 µM (inactive) and the GI50 [15] was > 100 µM (inactive). For the same compound, the GI50 [16] was > 100 µM (inactive), the GI50 [17] was > 100 µM (inactive) and the GI50 [18] was > 100 µM (inactive). For the same compound, the GI50 [19] was > 100 µM (inactive), the GI50 [20] was > 100 µM (inactive) and the GI50 [21] was > 100 µM (inactive). For the same compound, the GI50 [22] was greater than 100 µM, the GI50 [23] was > 100 µM (inactive) and the GI50 [24] was > 100 µM (inactive). The GI50 [25] was > 100 µM (inactive), the GI50 [26] was > 100 µM (inactive) and the GI50 [27] was > 100 µM (inactive). The GI50 [28] was > 100 µM (inactive), the GI50 [29] was > 100 µM (inactive) and the GI50 [30] was > 100 µM (inactive). The GI50 [31] was > 100 µM (inactive), the GI50 [32] was > 100 µM (inactive) and the GI50 [33] was > 100 µM (inactive). The GI50 [34] was > 100 µM (inactive), the GI50 [35] was > 100 µM (inactive) and the GI50 [36] was > 100 µM (inactive). For the same compound, the GI50 [37] was > 100 µM (inactive), the GI50 [38] was > 100 µM (inactive) and the GI50 [39] was > 100 µM (inactive). The GI50 [40] was > 100 µM (inactive), the GI50 [41] was > 100 µM (inactive) and the GI50 [42] was > 100 µM (inactive). For the same compound, the GI50 [43] was > 100 µM (inactive), the GI50 [44] was > 100 µM (inactive) and the GI50 [45] was > 100 µM (inactive). The GI50 [46] was > 100 µM (inactive), the GI50 [47] was > 100 µM (inactive) and the GI50 [48] was > 100 µM (inactive). The GI50 [49] was > 100 µM (inactive), the GI50 [50] was > 100 µM (inactive) and the GI50 [51] was > 100 µM (inactive). The GI50 [52] was > 100 µM (inactive), the GI50 [53] was > 100 µM (inactive) and the GI50 [54] was > 100 µM (inactive). The GI50 [55] was > 100 µM (inactive) and the GI50 [56] was > 100 µM (inactive).
